Experimental data published in paper PMC10017042 (Science Advances, 2023).
Where two headings read alike, the source gives them in different places.

Assays:
[1] = Plasma drug concentrations (pyrimethamine UPLC-MS/MS, VPA assay, unbound dolutegravir) in trial participants; assay type: in vivo, human; conditions: human, plasma, 6 hours, read-out: Median unbound dolutegravir concentration
Experimental: Self-reported adherence was assessed at each study visit, and empty pill strips were collected after the 2-week intervention phase. […] A gradient (0.3 ml/min) with two eluents was used (A: 2 mM ammonium acetate + 0.1% formic acid in water; B: 2 mM ammonium acetate + 0.1% formic acid in methanol). […] For measurement validation, we performed linearity, correctness, LOD and lower LOQ, repeatability, reproducibility, measurement uncertainty, robustness, and carryover. […] Unbound dolutegravir plasma concentrations were quantified with a validated UPLC-MS/MS bioquantification method as previously described ([61]).

HIV-1 = conditions: cited from earlier work

SMILES: C[C@@H]1CCO[C@H]2Cn3cc(C(=O)NCc4ccc(F)cc4F)c(=O)c(O)c3C(=O)N12 [dolutegravir]
- concentration at 6 h ([1]; those with pyrimethamine exposure): 11.7 ng/mL
- concentration at 6 h ([1]; those without pyrimethamine exposure): 10.1 ng/mL

SMILES: O=C(CCCCCCC(=O)Nc1ccccc1)NO [vorinostat]
- Mean fold increase in CA US HIV-1 RNA (HIV-1; at time points during vorinostat): 2.6 fold
- HIV-1 reactivation (HIV-1; combined with a T cell-inducing HIV-1 vaccine in PLWH who initiated cART during acute HIV-1): No reactivation
- Fold change in CA US HIV-1 RNA (HIV-1; vorinostat treatment in postmenopausal women): 1.5 fold

SMILES: C/C=C1\NC(=O)[C@H]2CSSCC/C=C/[C@H](CC(=O)N[C@H](C(C)C)C(=O)N2)OC(=O)[C@H](C(C)C)NC1=O [romidepsin]
- Effect on HIV-1 transcription (HIV-1; additional pharmacodynamics studies): no significant effect
- Increase in CA US HIV-1 RNA (HIV-1; initial studies): approximately threefold
